Test results: patent publication EP0412158A1, “ONCOSTATIC DRUG” (priority 1987, dated 1988)
Several values for one entry are separate records, joined by “and”; a condition that tells them apart may be missing. Identical values can stand only once. Marks after values point to notes of the source that are not given here.

What was measured:
[1] = test system: human breast cancer (MX-1); experiment: Human breast cancer MX-1, SRC method (Examples 29 and 30); assay type: in vivo, female ICR/cd-1 mice; settings: for antineoplastic activity: result in words
[2] = test system: methyl cholanthrene A tumor; experiment: Antineoplastic activity against transplanted methyl cholanthrene A tumor, evaluation by size of tumor (Examples 1 to 6); assay type: in vivo, female BALB/C mice; settings: No. 3, ip×9; for Change in body weight: body weight 13 days after transplantation; for T/control: tumor weight
Procedure: By dissolving alkylammonium salt of polymolybdic acid [NH3C3H7(iso)]s [Mo7O24] • 3H2O (Compound A) and other compounds (Compounds B to D) severally in distilled water, aqueous solutions containing the compounds in a fixed concentration of 10 mg/ml were obtained. These aqueous solutions were administered to female BALB/C mice (five weeks old) to which methyl cholanthrene A tumor had been transplanted to test the compounds for antineoplastic activity. To be specific, methyl cholanthrene A was transplanted to the mice in a ratio of 1.0 x 10^5 cells per mouse and the aqueous solutions were continuously administered to the mice by intraperitoneal injection ([…]) for nine days. On elapse of 14 days following the start of the administration, the tumors in the mice were measured. For comparison, mice to which no antineoplastic .drug was administered and mice to which aminonitroso urea was administered were tested by following the procedure described above.

methyl cholanthrene A = experiment: Methyl cholanthrene A tumor, evaluation by extension of period of survival (Examples 7 to 11); assay type: in vivo, female BALB/C mice; settings: No. 2; for Average number of days of survival / Number of toxically killed mice/total number of mice / T/control: ip×9; for Change in body weight: ip×9, D1~D9; for T/control: days of survival
Procedure: The aforementioned compounds, A to D, were severally dissolved in distilled water to obtain aqueous solutions containing the compounds in a fixed concentration of 10 mg/ml. To the female BALB/C mice (five weeks old) to which methyl cholanthrene A had been transplanted in a ratio of 1.0 x 10^5 cells per mouse, […] to determine the mices' periods of survival. For comparison, mice to which no antineoplastic drug was administered and mice to which aminonitroso urea was administered were similarly tested.

MM-46 breast cancer [3] = assay type: in vivo, female C3H/He mice; settings: 100 mg/kg, ip × 9
Procedure: The active compounds, I to L, mentioned above were severally dissolved in distilled water to obtain aqueous solutions containing the compounds in a fixed concentration of 10 mg/ml. To female C3H/He mice (five weeks old) to which the MM-46 breast cancer had been transplanted in a ratio of 1.0 x 10^5 cells per mouse, the aqueous solutions were continuously administered at a dose of 100 mg/kg of body weight by intraperitoneal injection for nine days to determine the mice's periods of survival. For comparison, mice to which no aqueous solution was administered and mice to which aminonitrosourea was administered were similarly tested.

MM-46 breast cancer [4] = experiment: MM-46 breast cancer, evaluation by size of tumor (Examples 21 to 24); assay type: in vivo, female C3H/He mice; settings: for Average weight of tumor / Number of tumorless mice /total number of mice / T/control: 100 mg/kg; for Average weight of tumor / Number of tumorless mice /total number of mice: ip × 9; for T/control: ip×9, tumor weight
Procedure: A polymolybdate, K6[Mo7022(02)2]8H20 (Compound I), and the aforementioned other compounds (Compounds J to L) were severally dissolved in distilled water to obtain aqueous solutions containing the compounds in a fixed concentration of 10 mg/mi. To female C3H/He mice (five weeks old) to which MM-46 breast cancer had been transplanted, the aqueous solutions were administered to test the compounds for antineoplastic activity. To be more specific, the MM-46 breast cancer was transplanted to the mice at a ratio of 5.0 x 10^5 cells per mouse and the aqueous solutions were continuously administered (at a dose of 100 mg/kg of body weight) by intraperineal injection for nine days. On elapse of 14 days after the stop of the administration, the size of tumor in the mice was measured. For comparison, mice to which the aqueous solution was not administered and mice to which aminonitroso urea was administered were similarly tested.

[5] = 30 mg/kg ip(×5), individual mice
[6] = 129 mg/kg po(×5), individual mice
[7] = 257 mg/kg po(×5), individual mice
[8] = 100 mg/kg ip(×5), individual mice
[9] = 100 mg/kg ip(×5), individual mice, listed as Compound II
[10] = 200 mg/kg ip(×5), individual mice, listed as Compound II

## O=c1[nH]cc(F)c(=O)[nH]1 [Compound 5-FU, 5-fluorouracil]
[1]; 30 mg/kg ip(×5)
  T/C: 56.48* %
[1]; 30 mg/kg ip(×5), group mean
  T7/To: 0.779±0.072
[1]; [5]
  T7/To: 0.839 and 0.576 and 0.917 and 0.786
  Tumor 7 days after transplantation (T7): 13.0 omu and 7.5 omu and 16.5 omu and 11.0 omu

## O.O.[NH4+].[NH4+].[NH4+].[NH4+].[NH4+].[NH4+].[O]=[Mo](=[O])([O-])[O][Mo](=[O])(=[O])[O][Mo](=[O])([O-])([O-])[O][Mo](=[O])(=[O])[O][Mo](=[O])([O-])([O-])[O][Mo](=[O])(=[O])[O][Mo](=[O])(=[O])[O-] [Compound D, [NH4]6 [Mo7O24]. 2H20]
[2]; 100 mg/kg
  Average weight of tumor: 1790.5±189.3(8) mg
  Number of tumorless mice /total number of mice: 0/8
  Change in body weight: +1.20 g
  T/control: 0.695
Methyl cholanthrene A; 100 mg/kg
  Average number of days of survival: 33.3±2.7(8) days
  Number of toxically killed mice/total number of mice: 0/8
  Change in body weight: +1.20 g
  T/control: 133.3

## CCCCCCNC(=O)n1cc(F)c(=O)[nH]c1=O [HCFU(Mifur ol)]
[1]; 129 mg/kg po(×5)
  T/C: 61.15* %
[1]; 129 mg/kg po(×5), group mean
  T7/To: 0.844±0.040
  W7/Wo: 1.104±0.037
[1]; [6]
  Body weight 7 days after transplantation (W7): 21.3 g and 22.7 g and 21.8 g and 23.7 g
  T7/To: 0.929 and 0.885 and 0.741 and 0.821
  Tumor 7 days after transplantation (T7): 13.0 omu and 11.5 omu (2×) and 10.5 omu
  W7/Wo: 1.087 and 1.207 and 1.028 and 1.097
[1]; 257 mg/kg po(×5)
  T/C: 66.82* %
[1]; 257 mg/kg po(×5), group mean
  T7/To: 0.922±0.042
  W7/Wo: 1.080±0.035
[1]; [7]
  Body weight 7 days after transplantation (W7): 21.7 g and 23.2 g and 18.2 g and 19.4 g
  T7/To: 0.896 and 1.037 and 0.833 and 0.923
  Tumor 7 days after transplantation (T7): 13.0 omu and 14.0 omu and 12.5 omu and 12.0 omu
  W7/Wo: 1.109 and 1.166 and 1.011 and 1.037

## K6 [Mo7O22(O2)2] • 8H2O [Compound I]
[1]; 100 mg/kg ip(×5)
  T/C: 57.28 8* %
[1]; 100 mg/kg ip(×5), group mean
  T7/To: 0.790±0.077
  W7/Wo: 1.068±0.008
[1]; [8]
  Body weight 7 days after transplantation (W7): 21.0 g and 20.5 g and 21.4 g and 20.6 g
  T7/To: 0.875 and 0.941 and 0.760 and 0.586
  Tumor 7 days after transplantation (T7): 10.5 omu and 8.0 omu and 9.5 omu and 8.5 omu
  W7/Wo: 1.061 and 1.057 and 1.092 and 1.062
[1]
  antineoplastic activity: strong antineoplastic activity
MM-46 breast cancer [3]
  Average number of days of survival: 33.1±2.9(8) days
  Average weight of tumor after 14 days: 1135 ±185(8) mg
  Ratio of elongation of life (5): 100.8
  ratio of elongation of life: 100.8%
MM-46 breast cancer [4]
  Average weight of tumor: 1134.9±184.5(1 0) mg
  Number of tumorless mice /total number of mice: 0/10
  T/control: 0.397
MM-46 breast cancer [4]; 100 mg/kg.ip for nine days, judged by increase of body weight, result in words
  toxicity: very low toxicity

## K6 [Mo7O23(O2)] • 8H2O [Compound K]
MM-46 breast cancer [3]
  Average number of days of survival: 32.1±2.7(8) days
  Average weight of tumor after 14 days: 1140± 221(8) mg
  Ratio of elongation of life (5): 94.5
MM-46 breast cancer [4]
  Average weight of tumor: 1139.5±221.1(8 ) mg
  Number of tumorless mice /total number of mice: 0/8
  T/control: 0.399

## [NH3 (iso)]6 [Mo7O22(O2)2] • 5H20 [Compound J]
[1]; 100 mg/kg ip(×5)
  T/C: 63.53* %
[1]; 100 mg/kg ip(×5), group mean
  T7/To: 0.876±0.037
[1]; [9]
  T7/To: 0.913 and 0.792 and 0.840 and 0.962
  Tumor 7 days after transplantation (T7): 10.5 omu (2×) and 9.5 omu and 12.5 omu
[1]; 200 mg/kg ip(×5)
  T/C: 73.02* %
[1]; 200 mg/kg ip(×5), group mean
  T7/To: 1.007±0.087
[1]; [10]
  T7/To: 1.077 and 1.222 and 0.852 and 0.880
  Tumor 7 days after transplantation (T7): 14.0 omu and 11.0 omu (2×) and 11.5 omu
[1]
  antineoplastic activity: same degree of antineoplastic activity as that of HCFU
MM-46 breast cancer [3]
  Average number of days of survival: 40.6±4.1(6) days
  Average weight of tumor after 14 days: 385±152 (8) mg
  Ratio of elongation of life (5): 146.2
MM-46 breast cancer [4]
  Average weight of tumor: 385.1±152.3(10 ) mg
  Number of tumorless mice /total number of mice: 5/10
  T/control: 0.135

## [NH3 (iso)]6 [Mo7O23(O2)] • 5H20 [Compound L]
MM-46 breast cancer [3]
  Average number of days of survival: 32.1±3.9(8) days
  Average weight of tumor after 14 days: 1086 ± 132(8) mg
  Ratio of elongation of life (5): 94.5
MM-46 breast cancer [4]
  Average weight of tumor: 1085.6±133.2** ** mg
  Number of tumorless mice /total number of mice: 0/8
  T/control: 00.380

## [NH3C3H7(iso)]4 (Mo13O40] 1/3 • [Mo12O40H2]2/3 [Compound B]
[2]; 25 mg/kg
  Average weight of tumor: 1753.1±132.4(9) mg
  Number of tumorless mice /total number of mice: 0/9
  Change in body weight: -0.36 g
  T/control: 0.681
Methyl cholanthrene A; 25 mg/kg
  Average number of days of survival: 29.3±1.9(9) days
  Number of toxically killed mice/total number of mice: 0/9
  Change in body weight: -0.36 g
  T/control: 130.4

## [NH3C3H7(iso)]6 [Mo7O24H] mixture [Compound C]
[2]; 25 mg/kg
  Average weight of tumor: 1425.2±130.6(10) mg
  Number of tumorless mice /total number of mice: 0/10
  Change in body weight: -2.19 g
  T/control: 0.553
Methyl cholanthrene A; 25 mg/kg
  Average number of days of survival: 30.2±2.0(10) days
  Number of toxically killed mice/total number of mice: 0/10
  Change in body weight: -2.19 g
  T/control: 134.2
